Reference: patent publication US20240415918A1, “Polypeptide and its use as a CCK receptor agonist/antagonist” (Centre for Regenerative Medicine & Health, Hong Kong …, priority 2021, published 2024)
Where a SMILES comes first, the peptide text is derived from it. [ ]: non-standard residue; d: D form. dTrp(2-Me) = Cc1[nH]c2ccccc2c1C[C@@H](N)C(=O)O; Phe(3-Br) = N[C@@H](Cc1cccc(Br)c1)C(=O)O; dGly(nOct) = CCCCCCCC[C@@H](N)C(=O)O; Gly(octyl) = CCCCCCCC[C@H](N)C(=O)O; dAoc(2) = CCCCCC[C@@H](N)C(=O)O; Aad = N[C@@H](CCCC(=O)O)C(=O)O; Aoc(2) = CCCCCC[C@H](N)C(=O)O; Nle = CCCC[C@H](N)C(=O)O

What was measured:
[1] = molecular target: T1, CCK-B receptors (CHO-CCK) (Homo sapiens, UniProt P32239); experiment: Calcium flux (Fluo-8) agonist test on CHO-CCK model cells; assay type: cell-based; settings: CHO-CCK cells, Fluo-8 calcium flux; 100% control = 20 nM CCK8
T1 construct: expressed in transfected cells; host or cells: CHO (CHO-CCK model cells)
T1 sequence (P32239 1-447): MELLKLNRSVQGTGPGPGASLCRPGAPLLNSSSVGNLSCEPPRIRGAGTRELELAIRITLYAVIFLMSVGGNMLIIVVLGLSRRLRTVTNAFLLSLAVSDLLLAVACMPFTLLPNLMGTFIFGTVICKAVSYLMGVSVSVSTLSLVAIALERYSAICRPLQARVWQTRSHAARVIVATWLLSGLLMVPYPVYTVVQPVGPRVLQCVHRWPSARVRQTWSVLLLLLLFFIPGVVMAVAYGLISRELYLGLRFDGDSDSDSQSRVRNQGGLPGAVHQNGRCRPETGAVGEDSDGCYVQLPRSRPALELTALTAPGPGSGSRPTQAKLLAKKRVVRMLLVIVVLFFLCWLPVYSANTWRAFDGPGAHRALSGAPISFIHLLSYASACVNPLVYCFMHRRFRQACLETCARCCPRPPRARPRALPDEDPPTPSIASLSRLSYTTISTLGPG
How it was run: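 Agonist-mode Fluo-8 calcium flux read on CHO-CCK cells after dye loading 30 min at 37 °C plus 30 min at room temperature.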

[2] = molecular target: T1, CCK-B receptors (CHO-CCK); experiment: Calcium flux (Fluo-8) antagonist test on CHO-CCK model cells in presence of CCK8; assay type: cell-based
[3] = in presence of 10 nM CCK8, bound in μM

Compound | EC50 [1] | EC50 ([2]; in presence of 10 nM CCK8) | EC50 [2, 3]
CCCCCCCC[C@H](NC(=O)[C@H](Cc1c[nH]c2ccccc12)NC(C)=O)C(=O)N[C@@H](CC(=O)O)C(=O)N[C@@H](Cc1cccc(Br)c1)C(N)=O [HT-261, Ac-D-Trp-Da-Asp-Phe(3-Br)-NH2] (Ac-W[Gly(octyl)]D[Phe(3-Br)]-NH2) | 362 nM | 3.82 µM | –
CCCC[C@H](NC(=O)[C@@H](Cc1c(C)[nH]c2ccccc12)NC(C)=O)C(=O)N[C@@H](CCCC(=O)O)C(=O)N[C@@H](Cc1cccc(Br)c1)C(N)=O [HT-262, Ac-(2-Me-Trp)-Nle-Aa-Phe(3 Br)-NH2] (Ac-[dTrp(2-Me)][Nle][Aad][Phe(3-Br)]-NH2) | 1180 nM | – | > 10 µM
CCCCCC[C@@H](NC(C)=O)C(=O)N[C@@H](CCCC)C(=O)N[C@@H](CCC(=O)O)C(=O)N[C@@H](Cc1cccc(Br)c1)C(N)=O [HT-263, Ac-Oa-Nle-Glu-Phe(3-Br)-NH2] (Ac-[dAoc(2)][Nle]E[Phe(3-Br)]-NH2) | 64500 nM | – | > 10 µM
CCCCCCC[C@@H](NC(C)=O)C(=O)N[C@@H](CCCC)C(=O)N[C@@H](CCC(=O)O)C(=O)N[C@@H](Cc1cccc(Br)c1)C(N)=O [HT-264, Ac-Na-Nle-Glu-Phe(3-Br)-NH2] | 11000 nM | – | > 10 µM
CCCCCCCC[C@@H](NC(C)=O)C(=O)N[C@@H](CCCC)C(=O)N[C@@H](CCC(=O)O)C(=O)N[C@@H](Cc1cccc(Br)c1)C(N)=O [HT-265, Ac-Da-Nle-Glu-Phe(3-Br)-NH2] (Ac-[dGly(nOct)][Nle]E[Phe(3-Br)]-NH2) | 13000 nM | – | > 10 µM

Now those with a lower EC50 [1], led by results:

EC50 [1] | EC50 ([2]; in presence of 10 nM CCK8) | EC50 [2, 3] | Compound
2.29 nM | 0.0592 µM | – | CCCCCC[C@H](NC(=O)[C@H](Cc1c[nH]c2ccccc12)NC(C)=O)C(=O)N[C@@H](CC(=O)O)C(=O)N[C@@H](Cc1cccc(Br)c1)C(N)=O [HT-259, Ac-D-Trp-Oa-Asp-Phe(3-Br)-NH2] (Ac-W[Aoc(2)]D[Phe(3-Br)]-NH2)
160 nM | 2.74 µM | – | CCCCCCC[C@H](NC(=O)[C@H](Cc1c[nH]c2ccccc12)NC(C)=O)C(=O)N[C@@H](CC(=O)O)C(=O)N[C@@H](Cc1cccc(Br)c1)C(N)=O [HT-260, Ac-D-Trp-Na-Asp-Phe(3-Br)-NH2]
40.2 nM | 1.29 µM | – | CCCCCCCCCCCCCC[C@@H](NC(C)=O)C(=O)N[C@@H](CCCC)C(=O)N[C@@H](CCCCCC)C(=O)N[C@@H](Cc1cccc(Br)c1)C(N)=O [HT-266, Ac-Ha-Nle-Oa-Phe(3-Br)-NH2]
